Measured values: patent publication US20120029187A1, “HALOALKYLSULFONANILIDE DERIVATIVE” (Nissan Chemical Industries, Ltd., priority 2009, published 2012)

Tests used:
Assay type in all cases: in vivo
bulrush [1] = assay: Test Example 1: herbicidal effects in preemergence treatment under submerged conditions; conditions: dose 2.52 g/a
In short: (§1)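 Scoring 0 (<5% mortality) to 5 (≥90%) was done three weeks after preemergence application to the water surface of submerged (4 cm) alluvial soil, doses given as g per are. Weeds were seeded and 2.5-leaf rice transplanted on the treatment day; greenhouse at 25–30 °C.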

ducksalad [2] = assay: as above; conditions: dose 2.52 g/a
In short: as §1

barnyardgrass [3] = assay: as above; conditions: dose 2.52 g/a
In short: as §1

common chickweed [4] = assay: Test Example 3: herbicidal effects in soil treatment
In short: (§2)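 Seeds were sown in sterilized diluvial soil and covered with about 1.5 cm of soil. Compounds, formulated as emulsifiable concentrates and diluted with water, were sprayed evenly over the soil surface at set doses in g/a. Herbicidal effect was scored on a rating scale three weeks later.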

common lambsquater [5] = assay: as above; conditions: dose 6.3 g/a
In short: as §2

wild oat [6] = assay: as above
In short: as §2

velvetleaf [7] = assay: as above
In short: as §2

redroot pigweed [8] = assay: as above
In short: as §2

large crabgrass [9] = assay: as above
In short: as §2

barnyardgrass [10] = assay: as above
In short: as §2

water foxtail [11] = assay: as above
In short: as §2

posumbu knotweed [12] = assay: as above
In short: as §2

giant foxtail [13] = assay: as above
In short: as §2

Italian ryegrass [14] = assay: as above
In short: as §2

common ragweed [15] = assay: as above
In short: as §2

common chickweed [16] = assay: Test Example 4: herbicidal effect in foliage treatment; conditions: three weeks after application
In short: (§3)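 Visual herbicidal scores on a graded scale were recorded three weeks after foliar application. Compounds went on as diluted emulsifiable concentrates at predetermined g/a to plants grown 14 days in a 25 to 30° C greenhouse.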

common lambsquater [17] = assay: as above; conditions: three weeks after application
In short: as §3

wild oat [18] = assay: as above; conditions: three weeks after application
In short: as §3

velvetleaf [19] = assay: as above; conditions: three weeks after application
In short: as §3

redroot pigweed [20] = assay: as above; conditions: three weeks after application
In short: as §3

large crabgrass [21] = assay: as above; conditions: three weeks after application
In short: as §3

beadstraw = assay: as above; conditions: three weeks after application
In short: as §3

barnyardgrass [22] = assay: as above; conditions: three weeks after application
In short: as §3

water foxtail [23] = assay: as above; conditions: three weeks after application
In short: as §3

posumbu knotweed [24] = assay: as above; conditions: three weeks after application
In short: as §3

giant foxtail [25] = assay: as above; conditions: three weeks after application
In short: as §3

Italian ryegrass [26] = assay: as above; conditions: three weeks after application
In short: as §3

common ragweed [27] = assay: as above; conditions: three weeks after application
In short: as §3

bulrush [28] = assay: Test Example 2: herbicidal effects during the vegetation period under submerged conditions; conditions: treatment during the vegetation period under submerged conditions; dose 2.52 g/a
In short: (§4)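 Barnyardgrass, bulrush and ducksalad were co-sown in alluvial soil flooded to 4 cm and grown in a greenhouse at 25 to 30° C. At the 1- or 2-leaf stage, water-diluted emulsifiable concentrates went onto the water surface at set doses (g/a). Herbicidal effect was scored three weeks later on a graded scale.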

ducksalad [29] = assay: as above; conditions: treatment during the vegetation period under submerged conditions; dose 2.52 g/a
In short: as §4

barnyardgrass [30] = assay: as above; conditions: treatment during the vegetation period under submerged conditions; dose 2.52 g/a
In short: as §4

transplanted rice = assay: Test Example 1: preemergence treatment under submerged conditions, effect on crop; conditions: dose 2.52 g/a
In short: as §1

With O=C1COCCN1Cc1ccccc1NS(=O)(=O)C(F)(F)F [Compound I-1, 4-(2-trifluoromethanesulfonylaminobenzyl)-1,4-oxazinan-3-one] the “B: bulrush, herbicidal effect (evaluation scale 0-5)” value (from here on “B: bulrush, herbicidal effect”) (bulrush [1]) was 5 (mortality of 90% or above (nearly complete death)), the “C: ducksalad, herbicidal effect (evaluation scale 0-5)” value (“C: ducksalad, herbicidal effect” below) (ducksalad [2]) was 5 (mortality of 90% or above (nearly complete death)) and the “A: barnyardgrass, herbicidal effect (evaluation scale 0-5)” value (barnyardgrass [3]) was 5 (mortality of 90% or above (nearly complete death)). For the same compound, the “N: common chickweed, herbicidal effect (evaluation scale 0-5)” value (common chickweed [4]; dose 6.3 g/a) was 5 (mortality of 90% or above (nearly complete death)), the “L: common lambsquater, herbicidal effect (evaluation scale 0-5)” value (common lambsquater [5]) was 5 (mortality of 90% or above (nearly complete death)) and the “F: wild oat, herbicidal effect (evaluation scale 0-5)” value (wild oat [6]; dose 6.3 g/a) was 4 (mortality of at least 70% and less than 90%). For the same compound, the “I: velvetleaf, herbicidal effect (evaluation scale 0-5)” value (velvetleaf [7]; dose 6.3 g/a) was 5 (mortality of 90% or above (nearly complete death)), the “K: redroot pigweed, herbicidal effect (evaluation scale 0-5)” value (redroot pigweed [8]; dose 6.3 g/a) was 5 (mortality of 90% or above (nearly complete death)) and the “D: large crabgrass, herbicidal effect (evaluation scale 0-5)” value (large crabgrass [9]; dose 6.3 g/a) was 5 (mortality of 90% or above (nearly complete death)). For the same compound, the “A: barnyardgrass, herbicidal effect (evaluation scale 0-5)” value (barnyardgrass [10]; dose 6.3 g/a) was 5 (mortality of 90% or above (nearly complete death)), the “G: water foxtail, herbicidal effect (evaluation scale 0-5)” value (water foxtail [11]; dose 6.3 g/a) was 5 (mortality of 90% or above (nearly complete death)) and the “M: posumbu knotweed, herbicidal effect (evaluation scale 0-5)” value (posumbu knotweed [12]; dose 6.3 g/a) was 5 (mortality of 90% or above (nearly complete death)). For the same compound, the “E: giant foxtail, herbicidal effect (evaluation scale 0-5)” value (giant foxtail [13]; dose 6.3 g/a) was 5 (mortality of 90% or above (nearly complete death)), the “H: Italian ryegrass, herbicidal effect (evaluation scale 0-5)” value (Italian ryegrass [14]; dose 6.3 g/a) was 5 (mortality of 90% or above (nearly complete death)) and the “J: common ragweed, herbicidal effect (evaluation scale 0-5)” value (common ragweed [15]; dose 6.3 g/a) was 4 (mortality of at least 70% and less than 90%). For the same compound, the “N: common chickweed, herbicidal effect” value (common chickweed [16]; dose 6.3 g/a) was 4 (mortality of at least 70% and less than 90%), the “L: common lambsquater, herbicidal effect” value (common lambsquater [17]; dose 6.3 g/a) was 5 (mortality of 90% or above (nearly complete death)) and the “F: wild oat, herbicidal effect” value (wild oat [18]; dose 6.3 g/a) was 3 (mortality of at least 40% and less than 70%). The “I: velvetleaf, herbicidal effect” value (velvetleaf [19]; dose 6.3 g/a) was 5 (mortality of 90% or above (nearly complete death)), the “K: redroot pigweed, herbicidal effect” value (redroot pigweed [20]; dose 6.3 g/a) was 3 (mortality of at least 40% and less than 70%) and the “D: large crabgrass, herbicidal effect” value (large crabgrass [21]; dose 6.3 g/a) was 5 (mortality of 90% or above (nearly complete death)). For the same compound, the “O: beadstraw, herbicidal effect” value (beadstraw; dose 6.3 g/a) was 5 (mortality of 90% or above (nearly complete death)), the “A: barnyardgrass, herbicidal effect” value (barnyardgrass [22]; dose 6.3 g/a) was 5 (mortality of 90% or above (nearly complete death)) and the “G: water foxtail, herbicidal effect” value (water foxtail [23]; dose 6.3 g/a) was 5 (mortality of 90% or above (nearly complete death)). For the same compound, the “M: posumbu knotweed, herbicidal effect” value (posumbu knotweed [24]; dose 6.3 g/a) was 5 (mortality of 90% or above (nearly complete death)), the “E: giant foxtail, herbicidal effect” value (giant foxtail [25]; dose 6.3 g/a) was 5 (mortality of 90% or above (nearly complete death)) and the “H: Italian ryegrass, herbicidal effect” value (Italian ryegrass [26]; dose 6.3 g/a) was 5 (mortality of 90% or above (nearly complete death)). The “J: common ragweed, herbicidal effect” value (common ragweed [27]; dose 6.3 g/a) was 4 (mortality of at least 70% and less than 90%), the “B: bulrush, herbicidal effect” value (bulrush [28]) was 5 (mortality of 90% or above (nearly complete death)) and the “C: ducksalad, herbicidal effect” value (ducksalad [29]) was 5 (mortality of 90% or above (nearly complete death)). For the same compound, the “A: barnyardgrass, herbicidal effect (evaluation scale 0-5)” value (barnyardgrass [30]) was 5 (mortality of 90% or above (nearly complete death)).
For CCCOC(=O)N(c1ccccc1CN1COC(C)(C)CC1=O)S(=O)(=O)C(F)(F)F [II-24], the “B: bulrush, herbicidal effect” value (bulrush [1]) was 5 (mortality of 90% or above (nearly complete death)), the “C: ducksalad, herbicidal effect” value (ducksalad [2]) was 5 (mortality of 90% or above (nearly complete death)) and the “A: barnyardgrass, herbicidal effect (evaluation scale 0-5)” value (barnyardgrass [3]) was 5 (mortality of 90% or above (nearly complete death)). For the same compound, the “N: common chickweed, herbicidal effect (evaluation scale 0-5)” value (common chickweed [4]; dose 3.2 g/a) was 3 (mortality of at least 40% and less than 70%), the “F: wild oat, herbicidal effect (evaluation scale 0-5)” value (wild oat [6]; dose 3.2 g/a) was 0 (mortality of less than 5% (almost ineffective)) and the “I: velvetleaf, herbicidal effect (evaluation scale 0-5)” value (velvetleaf [7]; dose 3.2 g/a) was 5 (mortality of 90% or above (nearly complete death)). The “K: redroot pigweed, herbicidal effect (evaluation scale 0-5)” value (redroot pigweed [8]; dose 3.2 g/a) was 0 (mortality of less than 5% (almost ineffective)), the “D: large crabgrass, herbicidal effect (evaluation scale 0-5)” value (large crabgrass [9]; dose 3.2 g/a) was 4 (mortality of at least 70% and less than 90%) and the “A: barnyardgrass, herbicidal effect (evaluation scale 0-5)” value (barnyardgrass [10]; dose 3.2 g/a) was 4 (mortality of at least 70% and less than 90%). The “G: water foxtail, herbicidal effect (evaluation scale 0-5)” value (water foxtail [11]; dose 3.2 g/a) was 5 (mortality of 90% or above (nearly complete death)), the “M: posumbu knotweed, herbicidal effect (evaluation scale 0-5)” value (posumbu knotweed [12]; dose 3.2 g/a) was 4 (mortality of at least 70% and less than 90%) and the “E: giant foxtail, herbicidal effect (evaluation scale 0-5)” value (giant foxtail [13]; dose 3.2 g/a) was 3 (mortality of at least 40% and less than 70%). The “H: Italian ryegrass, herbicidal effect (evaluation scale 0-5)” value (Italian ryegrass [14]; dose 3.2 g/a) was 5 (mortality of 90% or above (nearly complete death)), the “J: common ragweed, herbicidal effect (evaluation scale 0-5)” value (common ragweed [15]; dose 3.2 g/a) was 4 (mortality of at least 70% and less than 90%) and the “N: common chickweed, herbicidal effect” value (common chickweed [16]; dose 3.2 g/a) was 4 (mortality of at least 70% and less than 90%). For the same compound, the “L: common lambsquater, herbicidal effect” value (common lambsquater [17]; dose 3.2 g/a) was 0 (mortality of less than 5% (almost ineffective)), the “F: wild oat, herbicidal effect” value (wild oat [18]; dose 3.2 g/a) was 0 (mortality of less than 5% (almost ineffective)) and the “I: velvetleaf, herbicidal effect” value (velvetleaf [19]; dose 3.2 g/a) was 4 (mortality of at least 70% and less than 90%). The “K: redroot pigweed, herbicidal effect” value (redroot pigweed [20]; dose 3.2 g/a) was 0 (mortality of less than 5% (almost ineffective)), the “D: large crabgrass, herbicidal effect” value (large crabgrass [21]; dose 3.2 g/a) was 4 (mortality of at least 70% and less than 90%) and the “O: beadstraw, herbicidal effect” value (beadstraw; dose 3.2 g/a) was 5 (mortality of 90% or above (nearly complete death)). For the same compound, the “A: barnyardgrass, herbicidal effect” value (barnyardgrass [22]; dose 3.2 g/a) was 5 (mortality of 90% or above (nearly complete death)), the “G: water foxtail, herbicidal effect” value (water foxtail [23]; dose 3.2 g/a) was 5 (mortality of 90% or above (nearly complete death)) and the “M: posumbu knotweed, herbicidal effect” value (posumbu knotweed [24]; dose 3.2 g/a) was 3 (mortality of at least 40% and less than 70%). The “E: giant foxtail, herbicidal effect” value (giant foxtail [25]; dose 3.2 g/a) was 4 (mortality of at least 70% and less than 90%), the “H: Italian ryegrass, herbicidal effect” value (Italian ryegrass [26]; dose 3.2 g/a) was 4 (mortality of at least 70% and less than 90%) and the “J: common ragweed, herbicidal effect” value (common ragweed [27]; dose 3.2 g/a) was 3 (mortality of at least 40% and less than 70%). For the same compound, the “a: transplanted rice, effect on crop (evaluation scale 0-5)” value (transplanted rice) was 0 (mortality of less than 5% (almost ineffective)), the “B: bulrush, herbicidal effect” value (bulrush [28]) was 5 (mortality of 90% or above (nearly complete death)) and the “C: ducksalad, herbicidal effect” value (ducksalad [29]) was 5 (mortality of 90% or above (nearly complete death)). The “A: barnyardgrass, herbicidal effect (evaluation scale 0-5)” value (barnyardgrass [30]) was 5 (mortality of 90% or above (nearly complete death)).
